According to patent US6563009B1, “Vasodilator cannabinoid analogs” (priority 1999, dated 2003):
Read-outs that look alike come from different tables or passages of the source.

Tests used:
[1] = Neurobehavioral tetrad (tail flick, locomotor activity, ring immobility, core body temperature); format: in vivo, mice
From the text: The protocol of the tail-flick test was as follows. The apparatus that was used for the tail-flick test contained a light source placed directly above a photocell connected to a timer. The mouse was held under a cloth by the technician conducting the experiment. The tail of the test animal was placed over the photocell and the light was turned on. When the test animal felt the discomfort of the heat from the light, it was freely able to remove its tail from the lamp. The photocell than sensed that the tail had moved and the timer was stopped. The typical nontreatment reaction time for an animal subjected to this test was about 2-4 seconds. This test involved a spinal reflex action similar to the removal of a finger from a hot stove. In treated animals, the latency to remove the tail lengthens in proportion to the analgesic potency of the drug. No animal was allowed to remain under the lamp for greater than 10 seconds to prevent any burns to the tail. No animal was subjected twice to this test.
Locomotor activity, ring immobility, and core body temperature parameters were measured as described in detail by Smith et al. (J. Pharmacol. Exp.Ther. (1994) 270; 219-227). Briefly, spontaneous locomotor activity is expressed as % inhibition vs. control. Mice were placed in individual activity cages 5 minutes post treatment, and interruption of the photocell beams (16 beams/chamber) were recorded for a 10 minute period using a Digiscan Animal Activity Monitor (Omnitech). Core temperature was measured by a rectal thermistor inserted to 25 mm, before and 30 minutes after administration of Abn-cbd. Catalepsy (ring immobility procedure) was expressed as % of total time spent motionless. Test compound can be injected into a tail vain i.v., and measurements are performed at 5 min (spontaneous motility), min (tail flick latency), 60 min (Core temperature) or 90 min (ring immobility) after drug injection.
Adult ICR mice (25-30 g) were from Harlan (Indianapolis, Ind.). Both male and female animals were used for these studies. Animals were housed four at a cage with standard mouse chow and water ad libitum, and were maintained at […] under a 12:12 light:dark cycle.

CB1 receptors [2] = target: T1, CB1 receptors (Rattus norvegicus, UniProt P20272); test: 3H-CP-55,940 radioligand binding to P2 membranes from rat brain; details: concentration of 10 μM
T1 construct: from tissue; host or cells: rat brain P2 membranes
T1 sequence (P20272 whole entry): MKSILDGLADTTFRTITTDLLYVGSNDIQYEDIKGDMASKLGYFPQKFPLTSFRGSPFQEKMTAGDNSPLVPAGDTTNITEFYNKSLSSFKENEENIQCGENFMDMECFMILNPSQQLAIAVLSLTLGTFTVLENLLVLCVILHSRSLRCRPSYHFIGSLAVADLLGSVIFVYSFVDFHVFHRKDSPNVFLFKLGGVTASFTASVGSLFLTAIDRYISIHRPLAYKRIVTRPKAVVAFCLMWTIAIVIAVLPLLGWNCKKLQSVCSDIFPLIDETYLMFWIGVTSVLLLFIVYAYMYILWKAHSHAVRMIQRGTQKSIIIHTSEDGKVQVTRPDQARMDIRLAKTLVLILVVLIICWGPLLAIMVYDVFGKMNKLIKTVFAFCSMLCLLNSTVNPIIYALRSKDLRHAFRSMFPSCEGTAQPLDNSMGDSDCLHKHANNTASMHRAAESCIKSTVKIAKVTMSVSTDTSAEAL

mesenteric vascular tone [3] = test: Drug effects on mesenteric vascular tone in perfused mouse mesenteric area (phenylephrine-established tone); parameters: species or system mice; details: for mesenteric vasodilation: injected intraarterially as a 1 mg bolus; for inhibition of 0-1848-induced vasodilation: FIG. 2(B), 2(C); for vasodilation (agonist effect): intra arterial bolus, dose-response, FIG. 1; for dose lower than the dose of Abn-cbd required to produce similar vasodilation: relative to Abn-cbd
Description: For measuring drug effects on mesenteric vascular tone in mice, sodium pentobarbital-anesthetized mice were laparotornized and a PE50 cannula was inserted distally into the abdominal aorta. Both renal and both femoral arteries were ligated, the heart removed, and the mesenteric area including the liver was perfused with oxygenated Krebs buffer at 36° C., using a peristaltic pump and a constant flow rate of 0.7 ml/min. Perfusion pressure monitored close to the inflow cannula was 25-30 mmHg, and was increased to 60-70 mmHg by the inclusion of 15 μM phenylephrine in the medium. Vasodilator effects were expressed as % relaxation of established tone, 100% being equal to the difference in perfusion pressure in the absence and presence of phenylephrine.
Perfusion pressure monitored near the inflow cannula should be 25-30 mmHg (1 mmHg[…]133 Pa) and is increased to 60-70 mmHg by the inclusion of […] phenylephrine in the medium. Vasodilation is expressed as percent relaxation of established tone, 100% being equal to the difference in perfusion pressure in the absence and presence of phenylephrine.
Evaluation of vasodilator response was performed as in Example 1 except that after addition of either the agonists 0-1602 (FIG. 2A) or 0-1848 (FIG. 2B-2C) as intra arterial bolus injections, the mesenteric preparation was perfused with either drug free buffer (solid circles) or buffer containing […].

mesenteric vascular tone [4] = test: as above; parameters: species or system mice; details: antagonist at 10 μM in perfusion buffer, FIG. 2(A)
[5] = cited from earlier work; for neurobehavioral effects: summary statement, no dose
CB1 receptors [6] = target: T1, CB1 receptors; details: cited from earlier work; for binding to CB1 receptors: summary statement, no concentration
mesenteric arterial bed [7] = details: cited from earlier work; for vasodilation: rat isolated / perfused mesenteric arterial bed
[8] = 10 mg/kg i.v., anesthetized rats; prevented by 3 mg/kg SR141716A; cited from earlier work
[9] = 10 mg/kg i.v., anesthetized mice; prevented by 3 mg/kg SR141716A; cited from earlier work
mesenteric arterial bed [10] = test: Vascular tone in isolated mesenteric arterial bed, with or without antagonist or endothelial denudation; parameters: species or system rat; details: 100 μg, species not given
Description: The methods used to analyze drug effects on vascular tone in the rat isolated mesenteric arterial bed and to achieve endothelial denudation by brief perfusion with distilled water have been described in detail elsewhere (Wagner et al.(1999), Hypertension 33 (Part II), 429-434). Because of the long lasting vasodilator effect of anandamide, R-methanandamide and abnormal cannabidiol, each preparation was tested with a single dose of the agonist, either in the absence or the presence of an antagonist.

[11] = Blood pressure in urethane-anaesthetized spontaneous hypertensive (SHR) rats; format: in vivo; details: 5 animals
vanilloid VRI receptors = vanilloid VRI receptors (Homo sapiens, UniProt Q8NER1); details: cited from earlier work
vanilloid VRI receptors, sequence (Q8NER1 whole entry): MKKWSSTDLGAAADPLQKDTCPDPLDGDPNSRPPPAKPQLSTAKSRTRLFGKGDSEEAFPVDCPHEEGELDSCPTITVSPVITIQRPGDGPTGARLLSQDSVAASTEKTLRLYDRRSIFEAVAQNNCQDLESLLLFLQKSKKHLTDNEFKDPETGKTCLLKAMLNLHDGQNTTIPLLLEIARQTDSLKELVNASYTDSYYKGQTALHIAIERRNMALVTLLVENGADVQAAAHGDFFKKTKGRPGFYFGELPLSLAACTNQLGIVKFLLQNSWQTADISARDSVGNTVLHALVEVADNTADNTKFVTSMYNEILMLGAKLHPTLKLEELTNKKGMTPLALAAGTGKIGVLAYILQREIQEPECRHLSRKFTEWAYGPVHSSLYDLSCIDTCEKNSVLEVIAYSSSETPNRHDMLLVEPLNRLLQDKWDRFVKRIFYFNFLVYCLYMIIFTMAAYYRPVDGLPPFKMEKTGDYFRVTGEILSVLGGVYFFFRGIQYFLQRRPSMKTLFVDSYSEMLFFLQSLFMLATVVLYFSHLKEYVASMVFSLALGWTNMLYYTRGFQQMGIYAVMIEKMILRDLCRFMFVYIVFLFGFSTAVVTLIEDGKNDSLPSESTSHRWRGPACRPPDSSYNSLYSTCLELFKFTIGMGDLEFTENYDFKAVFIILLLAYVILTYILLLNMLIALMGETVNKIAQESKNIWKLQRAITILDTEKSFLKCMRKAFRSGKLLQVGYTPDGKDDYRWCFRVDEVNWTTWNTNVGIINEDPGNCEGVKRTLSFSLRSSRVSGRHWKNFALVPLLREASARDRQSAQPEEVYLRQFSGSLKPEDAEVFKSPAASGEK

C=C(C)[C@@H]1CCC(C)=CC1c1c(O)cc(C)cc1O (single isomer, unassigned; (-)) [0-1821, (−)-2-(3-3,4-trans-p-menthadien-(1,8)-orcinol]
response in the tetrad of standard neurobehavioral effects ([1]; 30 μg/kg): does not elicit a response
binding to CB1 receptors (CB1 receptors [2]): no significant binding
inhibition of 0-1602-induced vasodilation (mesenteric vascular tone [3]; FIG. 2(A), antagonist in perfusion buffer): dose-dependent pronounced inhibition
mesenteric vasodilation (mesenteric vascular tone [3]): did not elicit vasodilation
inhibition of the vasodilatory effect of compound 0-1602 (mesenteric vascular tone [4]): almost complete inhibition

C=C(C)[C@@H]1CCC(C)=CC1c1c(O)c(I)c(C)c(I)c1O (single isomer, unassigned; (-)) [0-1868, (−)-2-(3-3,4-trans-p-menthadien-(1,8)-4,6-diiodoorcinol]
response in the tetrad of standard neurobehavioral effects ([1]; 30 μg/kg): does not elicit a response
binding to CB1 receptors (CB1 receptors [2]): no significant binding
inhibition of 0-1848-induced vasodilation (mesenteric vascular tone [3]; antagonist in perfusion buffer): dose-dependent pronounced inhibition
mesenteric vasodilation (mesenteric vascular tone [3]): did not elicit mesenteric vasodilation

C=C(C)[C@@H]1CCC(C)=CC1c1c(O)cc(O)cc1CCCCC (single isomer, unassigned; (-)) [Abn-cbd, (−)-4-(3-3,4-trans-p-menthadien-1,8)-yl-olivetol]
marijuana-like neurobehavioral effects ([5]; doses up to 60 mg/kg, mice): does not cause marijuana-like neurobehavioral effects
neurobehavioral effects [5]: does not elicit cannabinoid-like neurobehavioral effects
displacement of a potent known ligand from CB1 cannabinoid receptors (CB1 receptors [6]; concentrations up to 100 uM, rat brain plasma membrane preparation): failed to displace
binding to CB1 receptors (CB1 receptors [6]): does not bind
vasodilator response in the presence of L-NAME and indomethacin (mesenteric arterial bed [7]; 100 μM L-NAME and 10 μM indomethacin in the perfusion buffer): remains unchanged
vasodilation in the presence of capsazepine (mesenteric arterial bed [7]; bolus injection of 4 mg, 5 μM capsazepine): same long lasting vasodilation
vasodilation (mesenteric arterial bed [7]): caused vasodilation
hypotension [8]: cause hypotension
hypotension [9]: cause hypotension

C=C(C)[C@@H]1CCC(C)=CC1c1c(C)cc(O)cc1O (some centres unmarked) [0-1602]
response in the tetrad of standard neurobehavioral effects ([1]; dose not given): does not elicit a response
vasodilation (agonist effect) (mesenteric vascular tone [3]): dose-dependent pronounced vasodilation
dose lower than the dose of Abn-cbd required to produce similar vasodilation (mesenteric vascular tone [3]): 80 ×
vasodilation after endothelial denudation (mesenteric arterial bed [10]; n=3, P<0.005): 18%±2
vasodilation in the presence of SR141716A (mesenteric arterial bed [10]; n=3, P<0.005): 15%±3
vasodilation (mesenteric arterial bed [10]; n=4): 54%±2

C=C(C)[C@@H]1CCC(C)=CC1c1c(O)cccc1O (some centres unmarked) [0-1847]
response in the tetrad of standard neurobehavioral effects ([1]; 30 μg/kg): does not elicit a response
binding to CB1 receptors (CB1 receptors [2]): no significant binding
inhibition of 0-1848-induced vasodilation (mesenteric vascular tone [3]; antagonist in perfusion buffer): dose-dependent pronounced inhibition
mesenteric vasodilation (mesenteric vascular tone [3]): did not elicit mesenteric vasodilation

C=C(C)[C@@H]1CCC(C)=CC1c1ccc(O)cc1O (some centres unmarked) [0-1848]
response in the tetrad of standard neurobehavioral effects ([1]; dose not given): does not elicit a response
vasodilation (agonist effect) (mesenteric vascular tone [3]): dose-dependent pronounced vasodilation
dose lower than the dose of Abn-cbd required to produce similar vasodilation (mesenteric vascular tone [3]): 80 ×
hypotensive effect (reduction in mean blood pressure) [11]: elicits a hypotensive effect

CCCCCCC(C)(C)c1cc(O)c2c(c1)OC(C)(C)[C@@H]1CC=C(CO)C[C@@H]21 [HU-210]
vasodilation (mesenteric arterial bed [7]): do not have a vasodilator effect

CCCCCc1cc(O)c2c(c1)OC(C)(C)[C@@H]1CCC(C)=C[C@@H]21 [THC, Δ9-trahydrocannabinol]
vasodilation (mesenteric arterial bed [7]): do not have a vasodilator effect

Cc1c(C(=O)c2cccc3ccccc23)c2cccc3c2n1[C@H](CN1CCOCC1)CO3 [WIN 55212-2]
vasodilation (mesenteric arterial bed [7]): do not have a vasodilator effect

CCCCC/C=C\C/C=C\C/C=C\C/C=C\CCCC(=O)NCCO [anandamide, arachidonyl ethanolamide]
vasodilation (mesenteric arterial bed [7]): elicits prolonged vasodilation

C=C(C)[C@@H]1CCC(C)=C[C@H]1c1c(O)cc(CCCCC)cc1O [cannabidiol]
neurobehavioral effects [5]: devoid of neurobehavioral effects
binding to CB1 receptors (CB1 receptors [6]): does not bind
antagonism of the vasodilator effect of Abn-cbd (mesenteric arterial bed [7]; species not stated): able to antagonize
mesenteric vasodilation (mesenteric arterial bed [7]; species not stated): does not elicit mesenteric vasodilation

Oc1cc2c(cc1O)CN(C(=S)NCCc1ccc(Cl)cc1)CCC2 [capsazepine]
Kd (vanilloid VRI receptors): 285 nM
